Results: article PMC6039382 (Journal of Cardiovascular Pharmacology, 2018)
Positions count from the first letter of the chain named. Entries after “also recorded” stand apart in the source; their conditions may differ. One block for each compound: values may come before it.

Columns and labels:
PPAR-γ = PPAR-γ agonist transactivation, statements made jointly for all species; assay type: cell-based, human, mouse, rat
rat PPAR-α = biological target: T1, rat PPAR-α (Rattus norvegicus, UniProt P37230); experiment: PPAR-α agonist transactivation assay, Gal4-LBD luciferase reporter cells; assay type: cell-based; conditions: gemcabene up to 300 μM
T1 sequence (P37230 239-466 limits assumed): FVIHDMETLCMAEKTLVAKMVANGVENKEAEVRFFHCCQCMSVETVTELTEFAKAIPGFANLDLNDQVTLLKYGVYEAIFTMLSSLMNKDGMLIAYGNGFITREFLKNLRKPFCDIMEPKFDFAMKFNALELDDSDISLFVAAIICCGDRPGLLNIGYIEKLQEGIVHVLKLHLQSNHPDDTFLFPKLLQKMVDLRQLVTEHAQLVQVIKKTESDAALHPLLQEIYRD

mouse PPAR-α = biological target: T2, mouse PPAR-α (Mus musculus, UniProt P23204); experiment: as above; assay type: cell-based; conditions: gemcabene up to 300 μM
T2 sequence (P23204 239-466 limits assumed): T1 sequence (P37230 239-466 limits assumed) with N27D

human PPAR-γ = biological target: T3, human PPAR-γ (Homo sapiens, UniProt P37231); experiment: PPAR-γ agonist transactivation assay, Gal4-LBD luciferase reporter cells
T3 sequence (P37231 238-503 limits assumed): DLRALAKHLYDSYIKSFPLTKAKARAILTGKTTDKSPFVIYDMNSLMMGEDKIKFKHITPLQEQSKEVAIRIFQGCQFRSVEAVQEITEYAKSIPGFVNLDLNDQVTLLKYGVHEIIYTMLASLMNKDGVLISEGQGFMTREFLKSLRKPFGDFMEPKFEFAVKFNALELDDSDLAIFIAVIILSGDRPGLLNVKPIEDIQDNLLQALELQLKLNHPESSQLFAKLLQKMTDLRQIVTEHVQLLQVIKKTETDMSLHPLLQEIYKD

human PPAR-α = biological target: T4, human PPAR-α (Homo sapiens, UniProt Q07869); experiment: PPAR-α agonist transactivation assay, Gal4-LBD luciferase reporter cells; assay type: cell-based
T4 sequence (Q07869 239-466 limits assumed): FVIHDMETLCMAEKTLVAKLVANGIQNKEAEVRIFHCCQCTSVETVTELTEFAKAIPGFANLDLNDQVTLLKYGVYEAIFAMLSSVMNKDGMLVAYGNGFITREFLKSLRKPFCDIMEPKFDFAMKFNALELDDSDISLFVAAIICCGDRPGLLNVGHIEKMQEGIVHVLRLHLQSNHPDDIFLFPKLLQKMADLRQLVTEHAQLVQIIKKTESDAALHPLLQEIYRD

PPAR-α = conditions: cited from earlier work

SMILES: CN(CCOc1ccc(CC2SC(=O)NC2=O)cc1)c1ccccn1 (centres unmarked) [Rosiglitazone]
Comments / agonist activity in words (PPAR-γ): strong activation; also recorded: potent agonist activity

agonist activity (in words) (rat PPAR-α): not against mouse and rat PPAR-α
agonist activity (in words) (mouse PPAR-α): not against mouse and rat PPAR-α
agonist activity (in words) (human PPAR-γ): agonist activity
activation (human PPAR-γ; maximal): 16 fold
maximal activation (human PPAR-α): 19 fold
agonist activity (in words) (human PPAR-α; gemcabene up to 300 μM): agonist activity
SMILES: COc1ccc(OC(=O)N(CC(=O)O)Cc2ccc(OCCc3nc(-c4ccccc4)oc3C)cc2)cc1 [Muraglitazar]

SMILES: Cc1ccc(C)c(OCCCC(C)(C)C(=O)O)c1 [Gemfibrozil]
IC50/EC50 [Literature] (PPAR-α): 193 µM
